As a reminder, the IC50 is the concentration that inhibits the measured activity by half. Lower therefore signals inhibition by little substance.

These results are taken from BindingDB's records for doi:10.1021/acs.jmedchem.9b01392 (AstraZeneca, 2020).

In the experiment the target is T1, Tyrosine-protein kinase JAK3 (Homo sapiens, UniProt P52333).
T1 sequence (P52333 whole entry): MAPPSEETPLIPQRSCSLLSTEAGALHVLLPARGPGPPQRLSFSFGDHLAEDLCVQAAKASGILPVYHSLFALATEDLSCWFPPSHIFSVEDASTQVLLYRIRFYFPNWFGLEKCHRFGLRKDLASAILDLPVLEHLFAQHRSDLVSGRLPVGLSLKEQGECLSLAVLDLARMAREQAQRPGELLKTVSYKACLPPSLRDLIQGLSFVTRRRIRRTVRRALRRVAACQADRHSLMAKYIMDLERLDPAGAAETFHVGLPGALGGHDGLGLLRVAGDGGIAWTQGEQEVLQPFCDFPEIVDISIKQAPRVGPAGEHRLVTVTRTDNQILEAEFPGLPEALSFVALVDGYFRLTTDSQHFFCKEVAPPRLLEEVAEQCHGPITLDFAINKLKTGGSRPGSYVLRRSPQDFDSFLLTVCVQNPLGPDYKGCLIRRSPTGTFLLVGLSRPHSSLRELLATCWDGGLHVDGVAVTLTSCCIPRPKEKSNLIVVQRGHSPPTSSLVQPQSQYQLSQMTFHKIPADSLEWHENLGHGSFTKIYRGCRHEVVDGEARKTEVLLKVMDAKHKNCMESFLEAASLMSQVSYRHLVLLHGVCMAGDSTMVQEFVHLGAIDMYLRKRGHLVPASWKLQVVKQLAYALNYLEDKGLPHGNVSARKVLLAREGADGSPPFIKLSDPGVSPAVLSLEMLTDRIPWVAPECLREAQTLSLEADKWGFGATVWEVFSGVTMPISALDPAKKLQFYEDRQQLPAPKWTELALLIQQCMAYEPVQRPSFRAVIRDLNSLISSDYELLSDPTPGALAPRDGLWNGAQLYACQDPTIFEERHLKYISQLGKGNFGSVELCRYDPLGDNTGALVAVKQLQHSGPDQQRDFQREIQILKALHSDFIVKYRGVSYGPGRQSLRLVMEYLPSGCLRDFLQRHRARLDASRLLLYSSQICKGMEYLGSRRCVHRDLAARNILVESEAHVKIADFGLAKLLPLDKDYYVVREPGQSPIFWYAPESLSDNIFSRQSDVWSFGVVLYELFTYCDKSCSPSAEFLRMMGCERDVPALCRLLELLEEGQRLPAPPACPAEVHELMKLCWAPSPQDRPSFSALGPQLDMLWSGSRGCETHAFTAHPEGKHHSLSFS
Put plainly: Inhibition of JAK3 (unknown origin).

The structures appear in SMILES notation.

Turning to `COc1nn(C)cc1Nc1nccc(-c2c[nH]c3c(NC(=O)[C@@H](C)N4CCN(C)CC4)cccc23)n1` [(2R)-N-(3-{2-[(3-methoxy-1-methyl-1H-pyrazol-4-yl)amino]pyrimidin-4-yl}-1H-indol-7-yl)-2-(4-methylpiperazin-1-yl)propanamide], the half-inhibitory concentration (IC50) is greater than 30 µM.
